Results taken from patent publication US20170290774A1, “NEUROKININ-1 RECEPTOR ANTAGONIST COMPOSITION FOR TREATMENT OF DISEASES AND CONDITIONS OF THE RESPIRATORY TRACT” (PLUS VITECH, S.L., priority 2014, published 2017).

Tested on: TGFα
Experiment: Immunohistochemistry of TGFα in respiratory tract tissue of sodium hypochlorite aerosol-treated rabbits
Format: in vivo, New Zealand albino rabbits
Source text: It is known that the factors TGF-α, TGF-β 1, TGF-β 2, TGF-β 3, SPARC, MMP-3; MMP-7, MMP-9, MMP-11, MMP-13 and MMP-14, TGF-β, NF-kB, EGF, MMP-9, VEGF and TNF-α which are produced by lung cells (pneumocytes, fibroblasts and vascular endothelial cells) and inflammatory cells (macrophages, lymphocytes and polymorphonuclear leukocytes) are involved in the pathophysiology and development of said respiratory tract diseases. […] Herein, 27 New Zealand albino rabbits (New Zealand White Rabbit) with an initial average weight about 3 kg were used in this example. All subjects were administered an aerosol of a solution consisting of a mixture of water and sodium hypochlorite (35 g sodium hypochlorite per liter of water) at a rate of 5 mL of said solution by inhalation three times a day for 7 days (days 1 to 7 of experimentation). Subsequently, from days 3 to 7, a group of 3 rabbits (Group 1) was administered an oral dose of 10 mg/kg body weight per day, another group of 3 rabbits (Group 2) was administered an oral dose of 40 mg/kg body weight per day, a third group (Group 3) was administered an oral dose of 80 mg/kg body weight per day and a fourth group (Group 4) was administered an oral dose of 100 mg/kg body weight per day. […] This mixture was administered as an aerosol by inhalation, also from days 3 to 7, to a group of 3 rabbits (group 5) at a dose of 0.05 mg/kg body weight per day, to another group of three rabbits (Group 6) at a dose of 0.1 mg/kg body weight per day, to another group of three rabbits (Group 7) at a dose of 0.2 mg/kg body weight per day and to another group of three rabbits (Group 8) at a dose of 0.4 mg/kg body weight per day. A placebo consisting only of olive oil was administered from days 3 to 7 to a control group of 3 rabbits (placebo group). In parallel, 3 rabbits were kept under identical conditions but were not administered any treatment nor the aforementioned sodium hypochlorite solution (control group). […] On day 7 of the experiment all animals were euthanized and necropsied. […] Samples were taken at the peripheral level of the lung parenchyma, just below the pleural surface. Tissue samples were also taken from the nasal cavity, pharynx, larynx and bronchi. Immunohistochemistry studies were performed for all samples to evaluate the levels of the markers TGF-α, TGF-β 1, TGF-β 2, TGF-β 3 SPARC, MMP-3; MMP-7, MMP-9, MMP-11, MMP-14, TGF-β, TNF-α and VEGF. In said immunohistochemistry studies, a sample of each sample was dehydrated by treatment with increasing concentrations of ethanol and finally xylene. Subsequently said dried samples were embedded in paraffin, thus creating a block. Said paraffin blocks were cut on a microtome to a thickness of 5 μm, and the resulting sections (slices) were placed on slides suitable for conducting immunohistochemistry techniques. Subsequently, the sections were deparaffinised by immersion in xylene and then rehydrated through immersion in a series of solutions containing decreasing concentrations of ethanol and, finally, water. […] The samples were then allowed to cool to room temperature over 10 minutes. Endogenous peroxidase activity was blocked by treatment with 3% hydrogen peroxide over 30 min at room temperature. […] In order to verify the expression of NK1 receptors, the cell samples were incubated in the presence of anti-NK1 antibodies ([…], Sigma-Aldrich) diluted 1:1000 at 4° C. overnight. After this time they were washed in 0.05M Tris buffer at room temperature. Subsequently, Envision System-HRP (Dako) reagents were added for 30 min at room temperature. Once this time had expired, the samples were again washed with 0.05 M Tris buffer, and immunoreactivity was visualized by light microscopy with a chromogenic solution with 3,3'-diaminobenzidine (DAB+; Dako, USA). In order to differentiate the cell nuclei, these were lightly stained with haematoxylin. Samples that were not incubated with the primary antibody, but wherein this was replaced by a non-immune serum were used as negative controls. […]

C[C@@H](OC1OCCN(Cc2nc(=O)[nH][nH]2)C1c1ccc(F)cc1)c1cc(C(F)(F)F)cc(C(F)(F)F)c1 (stereo in doubt) [Aprepitant, 5-([(2R,3S)-2-((R)-1-[3,5-bis(trifluoromethyl)phenyl]ethoxy)-3-(4-fluorophenyl)morpholino]methyl)-1H-1,2,4-triazol-3(2H)-one]
Percent increase in TGFα with respect to the control group (bronchial tissue, Group 1, oral 10 mg/kg per day): 1,980.45%
Percent increase in TGFα with respect to the control group (bronchial tissue, Group 2, oral 40 mg/kg per day): 1,540.45%
Percent increase in TGFα with respect to the control group (bronchial tissue, Group 3, oral 80 mg/kg per day): 1,190.45%
Percent increase in TGFα with respect to the control group (bronchial tissue, Group 4, oral 100 mg/kg per day): 873.34%
% Med G5/C: percent increase in marker TGFα with respect to the control group (bronchial tissue, Group 5): 1,875.75%
% Med G6/C: percent increase in marker TGFα with respect to the control group (bronchial tissue, Group 6): 1,267.45%
% Med G7/C: percent increase in marker TGFα with respect to the control group (bronchial tissue, Group 7): 689.78%
% Med G8/C: percent increase in marker TGFα with respect to the control group (bronchial tissue, Group 8): 209.45%
Percent increase in TGFα with respect to the control group (laryngeal tissue, Group 1, oral 10 mg/kg per day): 1,875.56%
Percent increase in TGFα with respect to the control group (laryngeal tissue, Group 2, oral 40 mg/kg per day): 1,500.45%
Percent increase in TGFα with respect to the control group (laryngeal tissue, Group 3, oral 80 mg/kg per day): 1,320.32%
Percent increase in TGFα with respect to the control group (laryngeal tissue, Group 4, oral 100 mg/kg per day): 1,101.28%
Percent increase in TGFα with respect to the control group (laryngeal tissue, Group 5, inhalation 0.05 mg/kg per day): 1,820.45%
Percent increase in TGFα with respect to the control group (laryngeal tissue, Group 6, inhalation 0.1 mg/kg per day): 1,250.74%
Percent increase in TGFα with respect to the control group (laryngeal tissue, Group 7, inhalation 0.2 mg/kg per day): 783.78%
Percent increase in TGFα with respect to the control group (laryngeal tissue, Group 8, inhalation 0.4 mg/kg per day): 234.67%
Percent increase in TGFα with respect to the control group (lung tissue, Group 1, oral 10 mg/kg per day): 1,717.76%
Percent increase in TGFα with respect to the control group (lung tissue, Group 2, oral 40 mg/kg per day): 1,308.73%
Percent increase in TGFα with respect to the control group (lung tissue, Group 3, oral 80 mg/kg per day): 1,257.29%
Percent increase in TGFα with respect to the control group (lung tissue, Group 4, oral 100 mg/kg per day): 1,195.15%
Percent increase in TGFα with respect to the control group (lung tissue, Group 6, inhalation 0.1 mg/kg per day): 937.00%
Percent increase in TGFα with respect to the control group (lung tissue, Group 7, inhalation 0.2 mg/kg per day): 402.39%
Percent increase in TGFα with respect to the control group (lung tissue, Group 8, inhalation 0.4 mg/kg per day): 147.11%
Percent increase in TGFα with respect to the control group (nasal cavity tissue, Group 1, oral 10 mg/kg per day): 2,824.89%
Percent increase in TGFα with respect to the control group (nasal cavity tissue, Group 2, oral 40 mg/kg per day): 1,907.98%
Percent increase in TGFα with respect to the control group (nasal cavity tissue, Group 3, oral 80 mg/kg per day): 1,347.22%
Percent increase in TGFα with respect to the control group (nasal cavity tissue, Group 4, oral 100 mg/kg per day): 952.16%
Percent increase in TGFα with respect to the control group (nasal cavity tissue, Group 5, inhalation 0.05 mg/kg per day): 2,908.21%
Percent increase in TGFα with respect to the control group (nasal cavity tissue, Group 6, inhalation 0.1 mg/kg per day): 764.46%
Percent increase in TGFα with respect to the control group (nasal cavity tissue, Group 7, inhalation 0.2 mg/kg per day): 495.68%
Percent increase in TGFα with respect to the control group (nasal cavity tissue, Group 8, inhalation 0.4 mg/kg per day): 156.67%
Percent increase in TGFα with respect to the control group (pharyngeal tissue, Group 1, oral 10 mg/kg per day): 2,274.76%
Percent increase in TGFα with respect to the control group (pharyngeal tissue, Group 2, oral 40 mg/kg per day): 1,907.77%
Percent increase in TGFα with respect to the control group (pharyngeal tissue, Group 3, oral 80 mg/kg per day): 1,780.45%
Percent increase in TGFα with respect to the control group (pharyngeal tissue, Group 4, oral 100 mg/kg per day): 1,550.34%
Percent increase in TGFα with respect to the control group (pharyngeal tissue, Group 5, inhalation 0.05 mg/kg per day): 1,946.43%
Percent increase in TGFα with respect to the control group (pharyngeal tissue, Group 6, inhalation 0.1 mg/kg per day): 1,364.46%
Percent increase in TGFα with respect to the control group (pharyngeal tissue, Group 7, inhalation 0.2 mg/kg per day): 699.78%
Percent increase in TGFα with respect to the control group (pharyngeal tissue, Group 8, inhalation 0.4 mg/kg per day): 101.34%
